Test: recombinant UMI read abundance after kanamycin selection (control-corrected) (log10(CPM+1)); higher = more efficient recombination; extreme values may be limits of the assay; sequences stand for … in AGTGCAGAGAAAATCGGCCAGTTTTCTCTGCCTGCAGTCCGCATGCCGTGGGACCCCTTGGGTTCTAACCTGTTGCCTAGATTTATGCAGCGGACTGCCTTTCTCCCAAAGTGATAAACCGG…AGGTTGGTTTCACT; site = the 11-nt donor
Description: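 Pooled E. coli donor-specificity screen for the IS621 bridge recombinase. Each library member carries a reprogrammed 11-nt donor and a full-length LE bridge RNA expressed in cis from the natural promoter, with a paired donor-binding loop (8-nt LDG + 4-nt RDG) and a target-binding loop fixed to T5. It is co-electroporated with a T5 target plasmid; recombinase is induced with 0.07 mM IPTG and recombinants are selected on kanamycin. UMIs are counted as CPM, averaged over two biological replicates and corrected by the unselected control. Molecule = full bridge RNA written as DNA, built from the T5 scaffold: LDG = donor specificity nt 1-8, RDG = reverse complement of nt 8-11.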
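Also: IS621 bridge recombinase in Escherichia coli cells against a fixed T5 target plasmid.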

Sequence	recombinant UMI read abundance (log10)
ACAATGGCATGGACCGGTTTTCCCGGTAATCCGTATTTGAT (site ACAATGGCTAT)	2.3
ACACAGCCATGGACCGGTTTTCCCGGTAATCCGTATTTGAC (site ACACAACCTGT)	0
ACACAGCCATGGACCGGTTTTCCCGGTAATCCGTATTTGAC (site ACACACCCTGT)	1.68
ACACAGCCATGGACCGGTTTTCCCGGTAATCCGTATTTGAC (site ACACAGCCTGT)	1.05
ACACAGCCATGGACCGGTTTTCCCGGTAATCCGTATTTGAC (site ACACATCCTGT)	0.0116
ACACAGCCATGGACCGGTTTTCCCGGTAATCCGTATTTGTG (site ACACAGCCTCA)	0.606
ACACCAACATGGACCGGTTTTCCCGGTAATCCGTATTTGTC (site ACACAAACTGA)	0
ACACCAACATGGACCGGTTTTCCCGGTAATCCGTATTTGTC (site ACACCAACTGA)	1.62
ACACCAACATGGACCGGTTTTCCCGGTAATCCGTATTTGTC (site ACACGAACTGA)	0
ACACCAACATGGACCGGTTTTCCCGGTAATCCGTATTTGTC (site ACACTAACTGA)	0
ACACCACCATGGACCGGTTTTCCCGGTAATCCGTATTTGAT (site ACACCACCTAT)	0.00417
ACACCTCCATGGACCGGTTTTCCCGGTAATCCGTATTTGAC (site ACACATCCTGT)	0
ACACCTCCATGGACCGGTTTTCCCGGTAATCCGTATTTGAC (site ACACCTCCTGT)	1.93
ACACCTCCATGGACCGGTTTTCCCGGTAATCCGTATTTGAC (site ACACGTCCTGT)	0
ACACCTCCATGGACCGGTTTTCCCGGTAATCCGTATTTGAC (site ACACTTCCTGT)	0
ACACGAACATGGACCGGTTTTCCCGGTAATCCGTATTTGAC (site ACACGAACTGA)	1.64
ACACGAACATGGACCGGTTTTCCCGGTAATCCGTATTTGAC (site ACACGAACTGC)	0
ACACGAACATGGACCGGTTTTCCCGGTAATCCGTATTTGAC (site ACACGAACTGG)	1.33
ACACGAACATGGACCGGTTTTCCCGGTAATCCGTATTTGAC (site ACACGAACTGT)	2.62
ACACGAACATGGACCGGTTTTCCCGGTAATCCGTATTTGTG (site ACACGAACTAA)	0.269
ACACGAACATGGACCGGTTTTCCCGGTAATCCGTATTTGTG (site ACACGAACTCA)	1.91
ACACGAACATGGACCGGTTTTCCCGGTAATCCGTATTTGTG (site ACACGAACTGA)	0
ACACGAACATGGACCGGTTTTCCCGGTAATCCGTATTTGTG (site ACACGAACTTA)	0.766
ACACGACCATGGACCGGTTTTCCCGGTAATCCGTATTTGTC (site ACACGAACTGA)	0.0114
ACACGACCATGGACCGGTTTTCCCGGTAATCCGTATTTGTC (site ACACGACCTGA)	0
ACACGACCATGGACCGGTTTTCCCGGTAATCCGTATTTGTC (site ACACGAGCTGA)	0

Sequence	recombinant UMI read abundance (log10)
ACACGACCATGGACCGGTTTTCCCGGTAATCCGTATTTGTC (site ACACGATCTGA)	1.22
ACACGCACATGGACCGGTTTTCCCGGTAATCCGTATTTGTC (site ACACGAACTGA)	1.62
ACACGCACATGGACCGGTTTTCCCGGTAATCCGTATTTGTC (site ACACGCACTGA)	2.85
ACACGCACATGGACCGGTTTTCCCGGTAATCCGTATTTGTC (site ACACGGACTGA)	0
ACACGCACATGGACCGGTTTTCCCGGTAATCCGTATTTGTC (site ACACGTACTGA)	0.934
ACACGGACATGGACCGGTTTTCCCGGTAATCCGTATTTGTC (site ACACGAACTGA)	0
ACACGGACATGGACCGGTTTTCCCGGTAATCCGTATTTGTC (site ACACGCACTGA)	0
ACACGGACATGGACCGGTTTTCCCGGTAATCCGTATTTGTC (site ACACGGACTGA)	0.491
ACACGGACATGGACCGGTTTTCCCGGTAATCCGTATTTGTC (site ACACGTACTGA)	0
ACACGTCCATGGACCGGTTTTCCCGGTAATCCGTATTTGAT (site ACACGTCCTAT)	1.56
ACACTAGCATGGACCGGTTTTCCCGGTAATCCGTATTTGTG (site ACACTAGCTCA)	1.62
ACACTATCATGGACCGGTTTTCCCGGTAATCCGTATTTGCA (site ACAATATCTTG)	2.11
ACACTATCATGGACCGGTTTTCCCGGTAATCCGTATTTGCA (site ACACTATCTTG)	2.85
ACACTATCATGGACCGGTTTTCCCGGTAATCCGTATTTGCA (site ACAGTATCTTG)	1.89
ACACTATCATGGACCGGTTTTCCCGGTAATCCGTATTTGCA (site ACATTATCTTG)	2.21
ACAGAAACATGGACCGGTTTTCCCGGTAATCCGTATTTGCA (site ACAGAAACTTG)	2.78
ACAGAAACATGGACCGGTTTTCCCGGTAATCCGTATTTGCA (site ACAGTATCTTG)	0
ACAGCAGCATGGACCGGTTTTCCCGGTAATCCGTATTTGCA (site ACAGCAGCTTG)	2.49
ACAGCAGCATGGACCGGTTTTCCCGGTAATCCGTATTTGCA (site ACAGTATCTTG)	0
ACAGCGTCATGGACCGGTTTTCCCGGTAATCCGTATTTGAC (site ACAGCGTCTGT)	3.29
ACAGCTACATGGACCGGTTTTCCCGGTAATCCGTATTTGTG (site ACAACTACTCA)	0.815
ACAGCTACATGGACCGGTTTTCCCGGTAATCCGTATTTGTG (site ACACCTACTCA)	0.156
ACAGCTACATGGACCGGTTTTCCCGGTAATCCGTATTTGTG (site ACAGCTACTCA)	1.44
ACAGCTACATGGACCGGTTTTCCCGGTAATCCGTATTTGTG (site ACATCTACTCA)	0.0498
ACAGGAACATGGACCGGTTTTCCCGGTAATCCGTATTTGTC (site ACAAGAACTGA)	1.18
ACAGGAACATGGACCGGTTTTCCCGGTAATCCGTATTTGTC (site ACACGAACTGA)	0.428

From the supplement of paper PMC11208160
